{"source": "patent US10113114B2", "about": "“Apparatus and method for coating particulate material” (BASF Corporation, priority 2013, dated 2018)", "tested_on": "red imported fire ant (Solenopsis invicta) workers", "details": "all rates tested (0.5 to 3 X label rate)", "description": "Testing with red imported fire ant (Solenopsis invicta, RIFA), Argentine ant (Linepthema humile), and odorous house ant (OHA) workers. Ten inch plastic arenas (inside walls coated with Fluon® to prevent escape) were provided a layer of moistened play sand. A band of mulch was placed across the arena near one side. Between the closest side and the mulch, a micro-centrifuge tube with a universal ant diet was placed. In the larger open area of the arena was placed a water vial and a small weigh boat with either corn grit+soybean oil (RIFA) or 20% honey water (Argentine ant and OHA). Approximately 100 ants were placed in each arena. Mortality was evaluated at 6 or 7 days."}
{"smiles": "CN/C(=N/CC1CCOC1)N[N+](=O)[O-]", "note": "(stereo not shown) [dinotefuran]", "values": [{"measurement": "efficacy of the insecticide on mulch (in words)", "value": "effective at all rates tested"}]}
